Experimental data reported in article PMC4809498, “Artonin E Induces Apoptosis via Mitochondrial Dysregulation in SKOV-3 Ovarian Cancer Cells” (PLoS ONE, 2016).
Converted amounts (≈) assume the structure as drawn.

Experiments:
[1] = test system: SKOV-3 cells; assay: MTT cell viability assay, SKOV-3; format: cell-based, human; details: SKOV-3, MTT; for IC50: Homo sapiens
Procedure: Metastatic ovarian adenocarcinoma (SKOV-3) and normal Chinese hamster ovary (CHO) cell lines were originally obtained from the American Type Culture Collection (ATCC; Manassas, VA). SKOV-3 cells were cultured in McCoy’s 5A medium and CHO cells were cultured in F12K medium. A human periodontal ligament fibroblast cell line was purchased from Lonza, USA and maintained in stroma cell basal medium. T1074 (normal immortalized human ovarian surface epithelial cell line) was originally purchased from Applied Biological Materials (abm®) Canada and cultured in Prigrow 1 medium.
The inhibitory effects of artonin E and two positive controls paclitaxel and carboplatin were examined by MTT assay. Cells at a density of 5×10^3cells/well were placed in a 96-well plate and left for 24 h to attach. The attached cells were exposed to artonin E, paclitaxel, and carboplatin at different concentrations and incubated for 24, 48, and 72 h. Subsequently, 20 μL of 5 mg/mL MTT solution was added after drug treatment and the resulting mixture was incubated for 4 h to form purple formazan. Afterward, 100 μL of dimethyl sulfoxide (DMSO) was transferred into each well to dissolve the purple formazan, and results were measured using a microplate reader (Tecan Infinite M 200 PRO, Männedorf, Switzerland) at an absorbance of 570 nm. The half-maximal concentrations that caused cell growth inhibition (IC50 values) were obtained from the MTT viability growth curve.

[2] = test system: SKOV-3 cells; assay: Clonogenic assay; format: cell-based, human; details: three weeks incubation
Procedure: The SKOV-3 cells were trypsinized, centrifuged, and supplemented with fresh media. The cells were immediately counted and seeded (300 cells/plate) in a 60 mm Petridish, and left overnight to attach. The attached cells were treated with 0, 1, 5, 10, 15, and 20 μg/mL of artonin E for 24 h. Following incubation, the treated media were removed and fresh media were added. The cells were incubated for three weeks to form colonies. Surviving colonies were fixed with 90% ethanol and stained with crystal violet.

[3] = test system: cytochrome c; assay: Cytochrome c releasing apoptosis assay (Western blot of fractions); format: cell-based, human
Procedure: Cytochrome c releasing apoptosis assay kit (ab65311) was purchased from abcam® (Cambridge, UK). The assay was conducted according to the manufacturer’s instruction. Briefly, SKOV-3 cells were induced with artonin E at different time points. The induced and un-induced cells were collected and centrifuged at […] for 5 minutes at 4°C. The cells were washed twice with 10 mL of ice-cold PBS, centrifuged and collected the pellet. The fresh pellets were then re-suspended with 1.0 mL of 1X cytosol extraction buffer mix containing DTT and Protease Inhibitor and incubated on ice for 10 minutes. Cells were then Dounce-homogenized before centrifuging at 7,000×g for 10 min at 4°C. The supernatant were collected and saved as cytosolic fractions. The remaining pellets were resuspended in 0.1 mL mitochondrial extraction buffer, vortexed for 10 seconds and saved as mitochondrial fractions. Both cytosolic and mitochondrial fractions were applied for protein analysis and proceeded with standard Western blot procedure.
SKOV-3 cells were plated in a 75cm^2 culture flask and exposed to artonin E for 24, 48, and 72 h. […] Protein concentration was determined using a BCA protein assay reagent kit (Bio-Rad, USA). […] The protein bands were detected using pico or femto chemiluminescence (ECL system) and visualized using a UV gel documentation system. […]

[4] = test system: SKOV-3 cells; assay: DNA fragmentation (laddering) assay; format: cell-based, human; details: SKOV-3, 8 μg/mL, 24, 48, 72 h, 1.5% agarose gel
Procedure: SKOV-3 cells were treated with artonin E at different time points, and harvested by adding trypsin to promote detachment. The detached cells were spun down and washed two times with cold PBS. The DNA from cells in the suspension was extracted using the suicide Track^TM DNA ladder isolation kit (Calbiochem, EMD Bioscience, Germany). The cells were then lysed by mixing 55 μL of TE (Tris and EDTA) lysis buffer and 20 μL of enzyme A (RNase A). The resulting mixture was incubated at 37°C for 1 h. Subsequently, 25 μL of enzyme B (proteinase K) was added and the lysate was kept in a water bath at 50°C overnight. Following incubation, 2 μL of Pellet Paint, 60 μL of 3M sodium acetate, and 662 μL of 2-propanol were added to the lysate, and the solution was briefly mixed by inversion and incubated at room temperature for 2 min. The DNA was then precipitated by centrifugation of the samples at 16,000×g for 5 min. The supernatant was removed and the fresh pellets were rinsed two times with 70% and 100% ice-cold ethanol. The pellets were air dried at room temperature for a few minutes to discard the ethanol and resuspended with 50 μL of DNA resuspension buffer. The prepared DNA ladder samples were loaded onto a 1.5% gel electrophoresis set up and run at 50 constant volts for 3 h. […]

[5] = test system: caspase-9; assay: Western blot, caspase-9; format: cell-based, human; details: SKOV-3, 8 μg/mL, as early as 24 h
Procedure: (§1) SKOV-3 cells were plated in a 75cm^2 culture flask and exposed to artonin E for 24, 48, and 72 h. Lysis buffer (50 mM Tris–HCl, pH 8.0; 120 mM NaCl, 0.5% NP-40; and 1 mM PMSF) was used to extract the total protein. Protein concentration was determined using a BCA protein assay reagent kit (Bio-Rad, USA). Equal amounts of protein (40 μg) extract were subjected to SDS-PAGE and electroblotted onto a polyvinylidenedifluoride membrane (Bio-Rad). Blots were then blocked with 5% non-fat milk in TBS-Tween buffer 7 (0.12 M Tris-base, 1.5 M NaCl, and 0.1% Tween 20) for 1 h at room temperature. After incubating with the appropriate primary antibody overnight at 4°C, the blots were washed and then incubated with horseradish peroxidase conjugated secondary antibody for 1 h at room temperature. The protein bands were detected using pico or femto chemiluminescence (ECL system) and visualized using a UV gel documentation system. The subsequent primary antibodies, which include those for β-actin (1:10,000), Bax (1:10,000), Bcl-2 (1:10,000), HSP-70 (1:10,000), survivin (1:10,000),caspase -3 (1:10,000), caspase -8 (1:10,000), caspase -9 (1;10,000) and cytochrome c (1:200) were purchased from Abcam, Cambridge, United Kingdom.

[6] = test system: Bcl-2; assay: Western blot, Bcl-2; format: cell-based, human; details: SKOV-3, 8 μg/mL
Procedure: as §1

[7] = test system: HSP70; assay: Western blot, HSP70; format: cell-based, human; details: SKOV-3, 8 μg/mL, 72 h after treatment
Procedure: as §1

[8] = target: arachidonate 5-lipoxygenase; design: method as in PMID 14559276; details: read-out: IC50 value, arachidonate 5-lipoxygenase inhibition; cited from earlier work
[9] = test system: H460 cells; design: method as in PMID 23225436; details: dose-dependent manner; cited from earlier work

IC50 ([1]; SK-OV-3, 24 h, 24 h treatment): 12.8 ± 0.28 µg/mL (≈ 29.4 µM)
IC50 ([1]; SK-OV-3, 48 h, 48 h treatment): 8 µg/mL (≈ 18.3 µM)
IC50 ([1]; SK-OV-3, 72 h, 72 h treatment): 6.5 ± 0.5 µg/mL (≈ 14.9 µM)
IC50 values ([1]; 48 h treatment): 8.8 ± 0.29 µg/mL (≈ 20.2 µM)
SMILES: CC(C)=CCc1c(-c2cc(O)c(O)cc2O)oc2c3c(cc(O)c2c1=O)OC(C)(C)C=C3 [Artonin E, artonin E]
colony formation ([2]; SKOV-3, 5 μg/mL for 24 h): almost half of the colonies were reduced
colony formation ([2]; SKOV-3, 10 μg/mL for 24 h): decreasing sharply
colony formation ([2]; SKOV-3, 15 and 20 μg/mL for 24 h): No colonies were formed
expression level of cytochrome c in cytosolic fraction ([3]; SKOV-3, 8 μg/mL, 24, 48, 72 h): increase
expression level of cytochrome c in mitochondrial fraction ([3]; SKOV-3, 8 μg/mL, time-dependent (24, 48, 72 h)): significantly (p<0.05) decreased
DNA fragmentation (ladder pattern) [4]: distinctly observed
protein expression level of caspase-9 [5]: significantly (p<0.05) up-regulated
Bcl-2 level ([6]; 24 h post treatment): significantly lower
Bcl-2 level ([6]; after 48 h and 72 h): almost diminished
level of HSP70 expression [7]: reduced significantly
IC50 [8]: 360 nM
anoikis (detachment-induced apoptosis) of H460 cells [9]: enhances anoikis
